Values joined by “and” are separate entries in the source; they are usually repeats but may differ in a detail not shown here. Identical values can stand only once.
System: SK-RC-52 xenografts
Test: Biodistribution of [111In]XYIMSR-01 and [177Lu]XYIMSR-01
Type: in vivo, mice
Procedure: Cell Lines and Mouse Models. Animal experiments were performed in accordance with protocols approved by the Johns Hopkins Animal Care and Use Committee (ACUC). Six-week-old female NOD/SCID mice were purchased from the Animal Resource Core of the Sidney Kimmel Comprehensive Cancer Center of Johns Hopkins and were subcutaneously injected in the lower left flank or upper right flank with 1×10^6 SK-RC-52 cells in RPMI 1640 GlutaMAX™ media (Life Technologies, Frederick, Md.) supplemented with 1% fetal bovine serum (FBS). Mice were monitored for tumor size and used for SPECT/CT imaging when the size of the tumor reached 100 mm^3.
Biodistribution of [^111In]XYIMSR-01 and [^177Lu]XYIMSR-01. Mice bearing SK-RC-52 xenografts at lower left flank were injected intravenously with 740 kBq (20 μCi) of [^111In]XYIMSR-01, or [^177Lu]XYIMSR-01 in 200 μL of PBS. For competitive blocking, same tumor bearing mice were injected with 740 kBq (20 μCi) of [^111In]XYIMSR-01 and 200 nmole of 1 in 200 μL of PBS. At 1 h, 4 h, 8 h, 24 h and 48 h post-injection, mice were sacrificed by cervical dislocation and the blood was immediately collected by cardiac puncture. Heart, lungs, pancreas, spleen, fat, brain, muscle, small intestines, liver, stomach, kidney, urinary bladder, and tumor were collected. Each organ was weighed and the tissue radioactivity was measured with an automated gamma counter (1282 Compugamma CS, Pharmacia/LKBNuclear, Inc., Mt. Waverly, Vic. Australia). The percentage of injected dose per gram of tissue (% ID/g) was calculated by comparison with samples of a standard dilution of the initial dose. All measurements were corrected for radioactive decay.
Data were expressed as mean±standard deviation (SD). Prism software (GraphPAD, San Diego, Calif.) was used to determine statistical significance. Statistical significance was calculated using a paired t test. P-values […] were considered significant.

[1] = 24 hr + Block (200 nmole of 1 co-injected)

CC(CCC(=O)N[C@@H](CC(=O)N[C@@H](CC(=O)N[C@@H](CCCCn1cc(CCCC(=O)Nc2nnc(S(N)(=O)=O)s2)nn1)C(=O)NCCOCCOCCNC(=O)CN1CCN(CC(=O)[O-])CCN(CC(=O)[O-])CCN(CC(=O)[O-])CC1)C(=O)O)C(=O)O)(c1ccc(O)cc1)c1ccc(O)cc1.[111In+3] [[^111In]XYIMSR-01]
Biodistribution: Bladder (1 hr post-injection): 4.90 ± 4.96 % ID/g | Biodistribution: Blood (1 hr post-injection): 1.34 ± 0.17 % ID/g | Biodistribution: Brain (1 hr post-injection): 1.23 ± 1.10 % ID/g | Biodistribution: Fat (1 hr post-injection): 1.03 ± 0.24 % ID/g | Biodistribution: Heart (1 hr post-injection): 5.98 ± 0.53 % ID/g | Biodistribution: Kidney (1 hr post-injection): 71.26 ± 8.74 % ID/g | Biodistribution: Liver (1 hr post-injection): 8.36 ± 0.73 % ID/g | Biodistribution: Lung (1 hr post-injection): 45.85 ± 19.89 % ID/g | Biodistribution: Muscle (1 hr post-injection): 2.34 ± 2.19 % ID/g | Biodistribution: Pancreas (1 hr post-injection): 3.81 ± 0.72 % ID/g | Biodistribution: Small intestine (1 hr post-injection): 9.37 ± 1.26 % ID/g | Biodistribution: Spleen (1 hr post-injection): 0.52 ± 0.04 % ID/g | Biodistribution: Stomach (1 hr post-injection): 16.71 ± 2.46 % ID/g | Biodistribution: Tumor (1 hr post-injection): 26 % ID/g and 26.01 ± 5.74 % ID/g | Tumor/Blood ratio (1 hr post-injection): 19.7 and 19.7 ± 4.8 | Tumor/Kidney ratio (1 hr post-injection): 0.36 ± 0.06 | Tumor/Muscle ratio (1 hr post-injection): 12.7 and 12.7 ± 5.8 | Biodistribution: Bladder (4 hr post-injection): 2.68 ± 1.89 % ID/g | Biodistribution: Blood (4 hr post-injection): 0.65 ± 0.06 % ID/g | Biodistribution: Brain (4 hr post-injection): 0.45 ± 0.06 % ID/g | Biodistribution: Fat (4 hr post-injection): 0.42 ± 0.22 % ID/g | Biodistribution: Heart (4 hr post-injection): 2.91 ± 0.45 % ID/g | Biodistribution: Kidney (4 hr post-injection): 41.52 ± 6.07 % ID/g | Biodistribution: Liver (4 hr post-injection): 4.00 ± 0.8 % ID/g | Biodistribution: Lung (4 hr post-injection): 17.85 ± 3.55 % ID/g | Biodistribution: Muscle (4 hr post-injection): 1.01 ± 0.28 % ID/g | Biodistribution: Pancreas (4 hr post-injection): 1.54 ± 0.40 % ID/g | Biodistribution: Small intestine (4 hr post-injection): 4.27 ± 0.69 % ID/g | Biodistribution: Spleen (4 hr post-injection): 0.51 ± 0.08 % ID/g | Biodistribution: Stomach (4 hr post-injection): 7.91 ± 1.28 % ID/g | Biodistribution: Tumor (4 hr post-injection): 20.8 % ID/g and 20.83 ± 6.25 % ID/g | Tumor/Blood ratio (4 hr post-injection): 31.9 ± 9.4 | Tumor/Kidney ratio (4 hr post-injection): 0.50 ± 0.15 | Tumor/Muscle ratio (4 hr post-injection): 21.4 ± 7.2 | Biodistribution: Bladder (8 hr post-injection): 2.28 ± 0.51 % ID/g | Biodistribution: Blood (8 hr post-injection): 0.48 ± 0.02 % ID/g | Biodistribution: Brain (8 hr post-injection): 0.59 ± 0.09 % ID/g | Biodistribution: Fat (8 hr post-injection): 0.45 ± 0.08 % ID/g | Biodistribution: Heart (8 hr post-injection): 2.61 ± 0.35 % ID/g | Biodistribution: Kidney (8 hr post-injection): 28.79 ± 21.35 % ID/g | Biodistribution: Liver (8 hr post-injection): 3.65 ± 0.65 % ID/g | Biodistribution: Lung (8 hr post-injection): 17.39 ± 8.99 % ID/g | Biodistribution: Muscle (8 hr post-injection): 1.09 ± 0.15 % ID/g | Biodistribution: Pancreas (8 hr post-injection): 1.61 ± 0.28 % ID/g | Biodistribution: Small intestine (8 hr post-injection): 4.31 ± 0.67 % ID/g | Biodistribution: Spleen (8 hr post-injection): 0.64 ± 0.07 % ID/g | Biodistribution: Stomach (8 hr post-injection): 8.74 ± 1.26 % ID/g | Biodistribution: Tumor (8 hr post-injection): 34.0 % ID/g and 34.00 ± 15.16 % ID/g | Tumor/Blood ratio (8 hr post-injection): 77.0 ± 32.5 | Tumor/Kidney ratio (8 hr post-injection): 3.1 ± 3.1 | Tumor/Muscle ratio (8 hr post-injection): 34.2 ± 16.0 | Tumor/liver ratio (24 h): 8.5 | uptake to tumors with simultaneously injected non-radioactive competitor 1 (24 h and 48 h post injection): ~1% | tumor/organ ratio, all other organs (24 h post-injection): ≥ 10 | Biodistribution: Bladder [1]: 0.20 ± 0.07 % ID/g | Biodistribution: Blood [1]: 0.03 ± 0.00 % ID/g | Biodistribution: Brain [1]: 0.03 ± 0.00 % ID/g | Biodistribution: Fat [1]: 0.02 ± 0.01 % ID/g | Biodistribution: Heart [1]: 0.04 ± 0.01 % ID/g | Biodistribution: Kidney [1]: 0.68 ± 0.14 % ID/g | Biodistribution: Liver [1]: 0.10 ± 0.02 % ID/g
